Data as given in the supplement of paper PMC10307832.

How the values were obtained:
Experiment in all cases: relative viability (nuclei count vs DMSO), 5 days (fraction); higher = more cells survive
Ruboxistaurin = compound: CN(C)C[C@@H]1CCn2cc(c3ccccc32)C2=C(C(=O)NC2=O)c2cn(c3ccccc23)CCO1 [Ruboxistaurin]
Summary of the method: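 Only plates meeting two conditions passed: control CV below 25% and at least one doubling. Lung cancer cell lines, kept overnight at 37 °C in 1536-well plates, were pinned with five library-drug doses (not always all listed) √10 apart on vehicle-anchored plates and grown 5 days without medium change. A one-step fix, permeabilisation and Hoechst stain preceded 4× imaging and MetaXpress nuclear counting. Viability equals treated-well nuclei divided by vehicle-well nuclei, as the median over plates.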

[1] = compound: CN(C)C[C@@H]1CCn2cc(c3ccccc32)C2=C(C(=O)NC2=O)c2cn(c3ccccc23)CCO1 [Ruboxistaurin] + C[C@@H](Oc1cc(-c2cnn(C3CCNCC3)c2)cnc1N)c1c(Cl)ccc(F)c1Cl [Crizotinib] (partner 1 µM)
Summary of the method: (§1)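 Lung cancer cell lines in 1536-well plates got either a single drug or a fixed anchor-drug dose together with five library-drug doses (not always all listed) in √10 steps, by pin tool, on the day after seeding. Nuclei were counted after 5 days, and relative viability is the treated-to-vehicle ratio of nuclei counts. Values are medians of duplicate plates.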

[2] = compound: CN(C)C[C@@H]1CCn2cc(c3ccccc32)C2=C(C(=O)NC2=O)c2cn(c3ccccc23)CCO1 [Ruboxistaurin] + Cc1nc(NC(=O)N2CCC[C@H]2C(N)=O)sc1-c1ccnc(C(C)(C)C(F)(F)F)c1 [Alpelisib] (partner 2 µM)
Summary of the method: as §1

[3] = compound: CN(C)C[C@@H]1CCn2cc(c3ccccc32)C2=C(C(=O)NC2=O)c2cn(c3ccccc23)CCO1 [Ruboxistaurin] + Cc1nc(Nc2ncc(C(=O)Nc3c(C)cccc3Cl)s2)cc(N2CCN(CCO)CC2)n1 [Dasatinib] (partner 0.075 µM)
Summary of the method: as §1

Ruboxistaurin + Olaparib = compound: CN(C)C[C@@H]1CCn2cc(c3ccccc32)C2=C(C(=O)NC2=O)c2cn(c3ccccc23)CCO1 [Ruboxistaurin] + O=C(c1cc(Cc2n[nH]c(=O)c3ccccc23)ccc1F)N1CCN(C(=O)C2CC2)CC1 [Olaparib] (partner 8 µM)
Summary of the method: as §1

Cell Line	relative viability (Ruboxistaurin; 0.08 µM)	relative viability (Ruboxistaurin; 0.8 µM)	relative viability (Ruboxistaurin; 2.53 µM)	relative viability (Ruboxistaurin; 8 µM)	relative viability ([1]; first compound 0.08 µM)	relative viability ([1]; first compound 0.8 µM)	relative viability ([1]; first compound 2.53 µM)	relative viability ([1]; first compound 8 µM)	relative viability ([2]; first compound 0.08 µM)	relative viability ([2]; first compound 0.8 µM)	relative viability ([2]; first compound 2.53 µM)	relative viability ([2]; first compound 8 µM)	relative viability ([3]; first compound 0.08 µM)	relative viability ([3]; first compound 0.8 µM)	relative viability ([3]; first compound 2.53 µM)	relative viability ([3]; first compound 8 µM)	relative viability (Ruboxistaurin + Olaparib; first compound 0.08 µM)	relative viability (Ruboxistaurin + Olaparib; first compound 0.8 µM)	relative viability (Ruboxistaurin + Olaparib; first compound 2.53 µM)	relative viability (Ruboxistaurin + Olaparib; first compound 8 µM)
HCC-78	1.11	0.996	1.1	0.949	0.31	0.351	0.323	0.291	0.358	0.311	0.327	0.286	0.52	0.399	0.377	0.283	0.821	0.762	0.935	0.746
HCC-366	0.989	0.95	1.02	1.05	0.58	0.518	0.605	0.536	0.536	0.326	0.373	0.226	0.564	0.526	0.624	0.52	0.4	0.364	0.372	0.269
HCC-827	1.05	1.03	1.09	1.09	0.977	0.907	1.01	0.96	1.13	1.02	0.984	0.969	0.36	0.241	0.327	0.278	0.655	0.647	0.695	0.624
HOP-62	1.05	1.02	1.11	1.16	0.882	1.05	0.741	1.05	0.932	1.08	0.992	1	0.746	0.628	0.634	0.673	0.499	0.443	0.541	0.611
IA-LM	0.959	0.79	0.981	1	1.01		0.967	0.938	0.971	0.663	0.747	0.612					0.871	0.836	0.842	0.912
LC-2-ad	1.06	0.935	1.04	1.08	0.458	0.406	0.476	0.638	0.779	0.785	0.846	0.783	0.672	0.651	0.575	0.558	0.711	0.626	0.697	0.752
LCLC-97TM1	0.905	0.948	1.08	0.906	0.358		0.474	0.404	0.245		0.223	0.204	0.891	0.896	0.968	0.821	0.355	0.334	0.352	0.341
LCLC-103H	0.998	0.887	0.894	0.841	1.21	0.929	0.905	1.01	0.99	0.802	0.826	0.862	0.641	0.386	0.482	0.389	0.735	0.69	0.729	0.676
LK-2	0.952	1	1.12	0.833	0.249	0.242	0.278	0.257	1.19	1.01	1	0.577	0.283	0.237	0.264	0.242	0.741	0.687	0.649	0.505
LOU-NH91	1.09	0.939	1.01	0.927	0.806	0.694	0.757	0.77	0.846	0.666	0.705	0.676	0.612	0.503	0.56	0.528	0.926	0.87	0.941	0.949
LU99A	0.956	0.858	1.04	0.852	0.507	0.506	0.503	0.506	0.552	0.48	0.45	0.297	0.412	0.436	0.589	0.507	0.27	0.259	0.253	0.218
LXF-289	1.02	0.999	0.991	1.06	0.826	0.758	0.826	0.951	1.11	0.952	0.994	1	0.243	0.206	0.273	0.22	1.08	1.01	1.07	1.18
NCI-H522	0.949	1.05	0.869	0.892									0.835	0.83	0.953	0.719	0.71	0.676	0.637	0.728
NCI-H1395	1.05	0.844	1.01	0.882					1.06	0.944	1.12	0.931	0.444	0.427	0.386	0.372	0.465	0.397	0.466	0.474
NCI-H1650	1.24	0.742	1.08	0.886	0.991	0.837	1.19	1.04					0.418	0.273	0.331	0.254	0.854	0.709	0.907	0.981
NCI-H1793	1.05	0.749	1.27	1.08					0.939	0.517	0.615	0.817	0.371	0.377	0.442	0.506	0.875		1.17	0.873
SW 900	0.897	0.897	1.14	0.958									0.838	0.436	0.64	0.383	0.891	0.829	1.03	0.964
